The substances below were run against rhodopsin (Bos taurus, UniProt P02699) (assay: extra MII stabilization assay).
Chain of rhodopsin (P02699 whole entry): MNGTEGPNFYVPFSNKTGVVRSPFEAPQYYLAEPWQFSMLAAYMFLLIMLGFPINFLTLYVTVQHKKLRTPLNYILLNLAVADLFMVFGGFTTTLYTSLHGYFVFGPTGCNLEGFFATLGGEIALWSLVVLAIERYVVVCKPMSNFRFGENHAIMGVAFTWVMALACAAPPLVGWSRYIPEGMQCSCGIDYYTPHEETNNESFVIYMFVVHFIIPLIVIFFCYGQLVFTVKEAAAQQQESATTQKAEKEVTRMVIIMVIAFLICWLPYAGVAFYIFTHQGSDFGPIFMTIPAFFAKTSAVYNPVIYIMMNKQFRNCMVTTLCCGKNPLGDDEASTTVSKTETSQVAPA
Format: biochemical
With AW 00987 [compound 5] the EC50 was 11.8 ± 6.7 mM.
For KM 05703 [compound 4], the EC50 was 3 ± 0.28 mM.
RJC 01340 [compound 3] gave an EC50 of 16.3 ± 12.3 mM.

Reference: article PMC2911999 (Chemical biology & drug design, 2010)
